In PubChem BioAssay (NCI):
Several values for one entry are separate records, joined by “and”; a condition that tells them apart may be missing. Identical values can stand only once.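 Where inhibition never reached the appropriate level, the endpoint shown equals the highest concentration tested. Otherwise, values were interpolated linearly from a five-concentration, 48-hour dose response in 96-well plates. The concentration for 50% growth inhibition is given as GI50. TGI marks complete inhibition of growth.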

Columns and labels:
Assay in all cases: NCI tumour cell line growth inhibition, 48 h
[1] = test system: TK-10 renal
[2] = test system: OVCAR-5 ovarian
[3] = test system: CCRF-CEM leukemia
[4] = test system: BT-549 breast
[5] = test system: SK-OV-3 ovarian
[6] = test system: SK-MEL-28 melanoma
[7] = test system: SF-539 CNS
[8] = test system: NCI-H23 lung
[9] = test system: T-47D breast
[10] = test system: SF-268 CNS

Structure (SMILES) | GI50 [1] | TGI [1] [µM] | GI50 [2] [µM] | TGI [2] [µM] | GI50 [3] [µM] | TGI [3] [µM] | GI50 [4] | TGI [4] [µM] | GI50 [5] [µM] | TGI [5] [µM] | GI50 [6] [µM] | TGI [6] [µM] | GI50 [7] [µM] | TGI [7] [µM] | GI50 [8] | TGI [8] [µM] | GI50 [9] [µM] | TGI [9] [µM] | GI50 [10] | TGI [10] [µM]
COc1cc2c(cc1NC(=O)C(Cl)Cl)-c1ccc(NC(=O)C(Cl)Cl)cc1C2 | 0.687 µM | 2.53 | 1.77 | 4.75 | 12.1 | 98.6 | 1.74 µM | 13.3 | 6.67 | 20.6 | 0.611 | 1.76 | 0.633 | 2.22 | 2.52 µM | 12.5 | 0.707 | 8.6 | 0.384 µM | 1.94
O=S(=O)(NCCCNc1cc(-c2cn(-c3ccccc3)nc2-c2cccc(O)c2)ccn1)c1ccc(F)cc1 | 7.41 µM | 31.5 | 3.33 | 33.5 | 2.45 | 9.41 | 2.28 µM | 7.78 | 4.44 | 23.5 | 2.58 | 8.27 | 2.99 | 15.8 | 3.48 µM | 19 | 2.89 | 8.76 | 3.65 µM | 22.9
COc1cc(C(=O)/C=C/c2c(C(F)(F)F)nc3ccccn23)cc(OC)c1OC | 2.09 µM | 4.33 | 1.98 | 4.02 | 4.15 | > 100 | 1.64 µM | 3.95 | 4.04 | 19 | 1.93 | 3.74 | 1.63 | 3.22 | 1.51 µM | 4.01 | 3.52 | 15 | 1.64 µM | 3.52
O=S(=O)(O)c1ccc2cc3nn(-c4ccc(/C=C/c5ccc(-n6nc7cc8ccc(S(=O)(=O)O)cc8cc7n6)cc5S(=O)(=O)O)c(S(=O)(=O)O)c4)nc3cc2c1 | 10.6 µM | > 100 | 62.5 | > 100 | 30.8 | > 100 | > 100 µM | > 100 | > 100 | > 100 | > 100 | > 100 | > 100 | > 100 | > 100 µM | > 100 | > 100 | > 100 | > 100 µM | > 100
C[C@@H](NC(=O)c1ccc(F)cc1)c1ccc2c(c1)CCN2C(=O)C1CCOCC1 |  |  | > 100 | > 100 | > 100 | > 100 | > 100 µM | > 100 | > 100 | > 100 | > 100 | > 100 | > 100 | > 100 | > 100 µM | > 100 | > 100 | > 100 | > 100 µM | > 100
COc1ccc2c(c1)C(=O)c1c-2c(=O)n(CCCN(C)C)c2cc(OC)c(OC)cc12 | 15.5 µM | 29.3 | 20.3 | 35.7 | 0.05 | 12.2 | 83.6 µM | > 100 | 5.15 | 19.5 | 17.9 | 32 | 3.61 | 14.9 | 6.48 µM | 24.5 | > 100 | > 100 | 0.427 µM | 15.2
CC(=O)N(O)c1ccc(/C=C/c2ccccc2)cc1 | 1.9 µM | 5.86 | 2.35 | 9.46 | 0.137 | > 100 | 2.59 µM | 20.5 | 2.04 | 8.77 | 9.39 | > 100 | 2.43 | 35.1 | 3.6 µM | 36.3 | 0.24 | > 41.8 | 0.817 µM | 9.69
Cc1cc2c(c(=O)o1)C1=S(SC(c3ccccc3)=C1)S2 (stereo not drawn) |  | 87.4 |  | > 100 |  | > 100 |  | > 100 |  | 52.6 |  | > 100 |  | 56.4 |  | > 100 |  | > 100 |  | > 100
O=C(c1cc(Cc2n[nH]c(=O)c3ccccc23)ccc1F)N1CCN(C(=O)C2CC2)CC1 | > 100 µM and 48.1 µM | > 100 | > 100 | > 100 | > 100 | > 100 | 32.2 µM and 33.6 µM | > 100 | > 100 | > 100 | > 100 | > 100 | > 100 | > 100 | 23.6 µM and 40.3 µM | > 100 | 31.5 | > 100 | 53.2 µM and 59.6 µM | > 100
O=c1[nH]c(=S)[nH]c(-c2ccccc2)c1Cc1c(O)ccc2ccccc12 |  | 59.3 |  | > 100 |  | 41 |  | 90.7 |  | > 100 |  | > 100 |  | 82.1 |  | 90.6 |  | 58 |  | > 100
CC1=NNC(=S)NCCCN2CCN(CCCNC(=S)NN=C(C)C=NNC(=S)NCCCN3CCN(CCCNC(=S)NN=C1)CC3)CC2 |  | > 100 |  | > 100 |  | > 100 |  | > 100 |  | > 100 |  | > 100 |  | > 100 |  | > 100 |  | > 100 |  | > 100
C[C@H]1CN(C2COC2)CCN1c1ccc(Nc2cc(-c3ccnc(N4CCn5c(cc6c5CC(C)(C)C6)C4=O)c3CO)cn(C)c2=O)nc1 | 38.7 µM | > 100 | 73 | > 100 | 21.4 | > 100 | 17.7 µM | 55.1 | > 100 | > 100 | 39.8 | > 100 | 21.4 | 66.9 | > 100 µM | > 100 | 19.2 | > 100 | 29.5 µM | > 100
Fc1ccc2nc(-c3nc(-c4ccccc4)n4ccccc34)[nH]c2c1 | 3.25 µM | 6.72 | 3.07 | 9.04 | 5.28 | > 100 | 2.76 µM | 7.61 | 2.4 | 5.26 | 2.13 | 5.51 | 2.32 | 6.85 | 3.54 µM | 17 | 1.06 | 4.76 | 3.29 µM | 9.96
